Assay results: the supplement of paper PMC10307832

Columns and labels:
Assay in all cases: relative viability (nuclei count vs DMSO), 5 days (fraction); higher = more cells survive
Dinaciclib + Alpelisib = compound: CCc1cnn2c(NCc3ccc[n+]([O-])c3)cc(N3CCCC[C@H]3CCO)nc12 [Dinaciclib] + Cc1nc(NC(=O)N2CCC[C@H]2C(N)=O)sc1-c1ccnc(C(C)(C)C(F)(F)F)c1 [Alpelisib] (partner 2 µM)
Outline: (§1)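 Relative viability divides the nuclei count in treated wells by that in vehicle wells. Lung cancer cell lines were seeded in 1536-well plates, dosed by pin tool the next day, and fixed and stained after 5 days in one step with final 0.05% Triton X-100, 1% formaldehyde and 1 ug/ml Hoechst. Dosing was a single drug or a fixed anchor-drug dose plus five library-drug doses (not always all listed) in √10 steps, and values are medians of duplicate plates imaged at 4×.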

Dinaciclib + Dasatinib = compound: CCc1cnn2c(NCc3ccc[n+]([O-])c3)cc(N3CCCC[C@H]3CCO)nc12 [Dinaciclib] + Cc1nc(Nc2ncc(C(=O)Nc3c(C)cccc3Cl)s2)cc(N2CCN(CCO)CC2)n1 [Dasatinib] (partner 0.075 µM)
Outline: as §1

Dinaciclib + Phenformin = compound: CCc1cnn2c(NCc3ccc[n+]([O-])c3)cc(N3CCCC[C@H]3CCO)nc12 [Dinaciclib] + N=C(N)NC(=N)NCCc1ccccc1 [Phenformin] (partner 250 µM)
Outline: as §1

Dinaciclib + Lapatinib = compound: CCc1cnn2c(NCc3ccc[n+]([O-])c3)cc(N3CCCC[C@H]3CCO)nc12 [Dinaciclib] + CS(=O)(=O)CCNCc1ccc(-c2ccc3ncnc(Nc4ccc(OCc5cccc(F)c5)c(Cl)c4)c3c2)o1 [Lapatinib] (partner 2 µM)
Outline: as §1

Dinaciclib + Pictilisib = compound: CCc1cnn2c(NCc3ccc[n+]([O-])c3)cc(N3CCCC[C@H]3CCO)nc12 [Dinaciclib] + CS(=O)(=O)N1CCN(Cc2cc3nc(-c4cccc5[nH]ncc45)nc(N4CCOCC4)c3s2)CC1 [Pictilisib] (partner 1 µM)
Outline: as §1

| Cell Line | relative viability (Dinaciclib + Alpelisib; first compound 0.009487 µM) | relative viability (Dinaciclib + Alpelisib; first compound 0.03 µM) | relative viability (Dinaciclib + Alpelisib; first compound 0.09487 µM) | relative viability (Dinaciclib + Alpelisib; first compound 0.3 µM) | relative viability (Dinaciclib + Dasatinib; first compound 0.009487 µM) | relative viability (Dinaciclib + Dasatinib; first compound 0.03 µM) | relative viability (Dinaciclib + Dasatinib; first compound 0.09487 µM) | relative viability (Dinaciclib + Dasatinib; first compound 0.3 µM) | relative viability (Dinaciclib + Phenformin; first compound 0.009487 µM) | relative viability (Dinaciclib + Phenformin; first compound 0.03 µM) | relative viability (Dinaciclib + Phenformin; first compound 0.09487 µM) | relative viability (Dinaciclib + Phenformin; first compound 0.3 µM) | relative viability (Dinaciclib + Lapatinib; first compound 0.009487 µM) | relative viability (Dinaciclib + Lapatinib; first compound 0.03 µM) | relative viability (Dinaciclib + Lapatinib; first compound 0.09487 µM) | relative viability (Dinaciclib + Lapatinib; first compound 0.3 µM) | relative viability (Dinaciclib + Pictilisib; first compound 0.009487 µM) | relative viability (Dinaciclib + Pictilisib; first compound 0.03 µM) | relative viability (Dinaciclib + Pictilisib; first compound 0.09487 µM) | relative viability (Dinaciclib + Pictilisib; first compound 0.3 µM) |
| --- | --- | --- | --- | --- | --- | --- | --- | --- | --- | --- | --- | --- | --- | --- | --- | --- | --- | --- | --- | --- |
| 201T | 1.11 | 0.829 | 0.288 | 0.284 | 0.621 | 0.428 | 0.265 | 0.245 | 0.418 | 0.415 | 0.257 | 0.238 | 1.14 | 0.743 | 0.361 | 0.245 | 0.714 | 0.372 | 0.308 | 0.265 |
| A549 | 0.686 | 0.0411 | 0.0487 | 0.0518 |  |  |  |  | 0.174 | 0.0204 | 0.035 | 0.0274 | 0.85 | 0.0505 | 0.0627 | 0.0615 | 0.375 | 0.0566 | 0.0629 | 0.0604 |
| A-427 | 1.11 | 0.138 | 0.0763 | 0.067 | 0.486 | 0.111 | 0.0662 | 0.0725 | 0.328 | 0.094 | 0.0857 | 0.0889 | 0.949 | 0.291 | 0.0989 | 0.0767 | 0.564 | 0.0973 | 0.0666 | 0.065 |
| ABC-1 | 0.726 | 0.342 | 0.194 | 0.172 | 0.466 | 0.133 | 0.137 | 0.0934 | 0.209 | 0.157 | 0.13 | 0.132 | 1.19 | 0.574 | 0.357 | 0.303 | 0.658 | 0.157 | 0.163 | 0.136 |
| BEN | 1.24 | 0.517 | 0.207 | 0.236 | 0.362 | 0.435 | 0.157 | 0.153 | 0.235 | 0.217 | 0.174 | 0.209 | 0.731 | 0.343 | 0.166 | 0.186 | 0.621 | 0.388 | 0.173 | 0.191 |
| CAL-12T | 0.443 | 0.128 | 0.0835 | 0.115 | 0.11 | 0.0662 | 0.082 | 0.0795 | 0.188 | 0.103 | 0.107 | 0.097 | 0.323 | 0.171 | 0.179 | 0.149 | 0.201 | 0.105 | 0.122 | 0.116 |
| COR-L23 | 0.637 | 0.0835 | 0.0694 | 0.0603 | 0.349 | 0.0817 | 0.0588 | 0.0557 | 0.296 | 0.0764 | 0.0763 | 0.069 | 0.688 | 0.0875 | 0.0701 | 0.0804 | 0.414 | 0.0756 | 0.0621 | 0.0547 |
| COR-L 105 | 0.575 | 0.35 | 0.234 | 0.187 | 0.25 | 0.201 | 0.191 | 0.187 | 0.384 | 0.217 | 0.208 | 0.201 | 0.327 | 0.292 | 0.283 | 0.299 | 0.306 | 0.23 | 0.224 | 0.25 |
